Common to all, as to assay: relative viability (nuclei count vs DMSO), 5 days (fraction); higher = more cells survive
Compound in the assay “TGX 221 + Phenformin”: CC1=CN2C(=O)C=C(N=C2C(=C1)C(C)NC3=CC=CC=C3)N4CCOCC4 [TGX 221] + N=C(N)NC(=N)NCCc1ccccc1 [Phenformin] (partner 250 µM)
The gist of the method: (§1)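 Lung cancer cell lines, seeded in 1536-well plates, were treated the following day by pin tool with a single drug or with five library-drug doses (not always all listed) in √10 steps on top of a fixed anchor-drug dose. Cells were fixed and nuclei stained in one step after 5 days, and nuclei were counted. Relative viability is the nuclei count for treated wells divided by that for vehicle wells, reported as medians of duplicate plates.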

Compound in the assay “TGX 221 + AZD7762”: CC1=CN2C(=O)C=C(N=C2C(=C1)C(C)NC3=CC=CC=C3)N4CCOCC4 [TGX 221] + NC(=O)Nc1cc(-c2cccc(F)c2)sc1C(=O)N[C@H]1CCCNC1 [AZD7762] (partner 0.2 µM)
The gist of the method:
as §1

Compound in the assay “Ricolinostat + Olaparib”: O=C(CCCCCCNC(=O)c1cnc(N(c2ccccc2)c2ccccc2)nc1)NO [Ricolinostat] + O=C(c1cc(Cc2n[nH]c(=O)c3ccccc23)ccc1F)N1CCN(C(=O)C2CC2)CC1 [Olaparib] (partner 8 µM)
The gist of the method:
as §1

Compound in assay [1]: C1=CC=C(C(=C1)C2=CC=C(C=C2)C3=CSC4=C3C(=C(C(=O)N4)C#N)O)O + Cc1nc(NC(=O)N2CCC[C@H]2C(N)=O)sc1-c1ccnc(C(C)(C)C(F)(F)F)c1 [Alpelisib] (partner 2 µM)
The gist of the method:
as §1

Compound in the assay “TGX 221 + Olaparib”: CC1=CN2C(=O)C=C(N=C2C(=C1)C(C)NC3=CC=CC=C3)N4CCOCC4 [TGX 221] + O=C(c1cc(Cc2n[nH]c(=O)c3ccccc23)ccc1F)N1CCN(C(=O)C2CC2)CC1 [Olaparib] (partner 8 µM)
The gist of the method: as §1

On to NCI-H1792, for which the relative viability in the assay with TGX 221 + Phenformin (first compound 0.8 µM) is 0.249; in the assay with TGX 221 + Phenformin (first compound 2.53 µM), 0.319; with TGX 221 + Phenformin (first compound 8 µM) it was 0.283; with TGX 221 + AZD7762 (first compound 0.08 µM), 0.625; in the assay with TGX 221 + AZD7762 (first compound 0.253 µM), 0.625; in the assay with TGX 221 + AZD7762 (first compound 0.8 µM), 0.602. In addition, the relative viability with TGX 221 + AZD7762 (first compound 2.53 µM) worked out at 0.556; with TGX 221 + AZD7762 (first compound 8 µM) it was 0.418; with Ricolinostat + Olaparib (first compound 0.253 µM) it was 0.391; with Ricolinostat + Olaparib (first compound 0.8 µM) it was 0.284; with Ricolinostat + Olaparib (first compound 2.53 µM), 0.041; in assay [1] (first compound 0.253 µM), 0.638. The relative viability was found to be 0.744 in assay [1] (first compound 0.8 µM); 0.612 in assay [1] (first compound 2.53 µM); 0.336 in assay [1] (first compound 8 µM); 0.267 in the assay with TGX 221 + Olaparib (first compound 0.08 µM); 0.385 in the assay with TGX 221 + Olaparib (first compound 0.253 µM); 0.386 with TGX 221 + Olaparib (first compound 0.8 µM). In addition, the relative viability with TGX 221 + Olaparib (first compound 2.53 µM) turned out to be 0.383; with TGX 221 + Olaparib (first compound 8 µM) it was 0.287.
